Results as given in US7671042B2, “Pharmaceutical compositions containing cyclodextrins and taxoids” (priority 1997, dated 2010).
Like-named read-outs stand apart in the source and are kept apart here.

Tests used:
[1] = aqueous
[2] = cited from earlier work
[3] = tested on: beagle dogs; experiment: Cardiovascular and respiratory effects following intravenous administration in anaesthetised beagle dogs; assay type: in vivo, beagle dog
Description: The following parameters were recorded or derived and served as indicators of the functional status of the various elements within the cardiovascular and respiratory systems. The units of measurement are stated in parenthesis.
Anaesthesia was induced by i.v. injection of sodium thiopentone and maintained i.v. by a mixture of α-chloralose and pentobarbitone sodium given as required. Body temperature was maintained.
The trachea was cannulated and the canule connected to a pneumotach screen to allow measurement of tidal volume (ml) and the derived parameters of respiration rate (br/min) and minute volume (ml). Catheters were introduced into the right femoral artery and a cephalic vein to facilitate measurements of blood pressure and the administration of vehicle, test substances and anaesthetic respectively. The femoral artery was connected to a heparin/saline filled pressure transducer, coupled to a Grass 7E polygraph. […]
Following a 30 minute stabilization period, the vehicle was administered i.v. at a dose volume of 7.0 ml/kG over a period of 15 minutes. […] The parameters were monitored for a least 45 minutes from the start of infusion. […]
All parameters including high resolution (50 mm/sec) recordings of the ECG were measured at 5 minute intervals during the stabilization period and at 0.5, 1, 2 and 5 minutes intervals post-dose following vehicle and drug administration. […]

For `CC(=O)O[C@H]1C(=O)[C@@]2(C)[C@H]([C@H](OC(=O)c3ccccc3)[C@]3(O)C[C@H](OC(=O)[C@H](O)[C@@H](NC(=O)c4ccccc4)c4ccccc4)C(C)=C1C3(C)C)[C@]1(OC(C)=O)CO[C@@H]1C[C@@H]2O` [paclitaxel], the “Dissolved Paclitaxel” value ([1]; 2% w/v acetyl-γ-cyclodextrin) was 4.0 µg/mL, the “Dissolved Paclitaxel” value ([1]; 5% w/v acetyl-γ-cyclodextrin) was 8.8 µg/mL and the “Dissolved Paclitaxel” value ([1]; 10% w/v acetyl-γ-cyclodextrin) was 25.0 µg/mL. For the same compound, the “Dissolved Paclitaxel” value ([1]; 20% w/v acetyl-γ-cyclodextrin) was 48.0 µg/mL, the “Dissolved Paclitaxel” value ([1]; 40% w/v acetyl-γ-cyclodextrin) was 170 µg/mL and the “Dissolved Paclitaxel” value ([1]; 40% w/v acetyl-γ-cyclodextrin, listed as Paclitaxel) was 170.0 µg/mL. The aqueous solubility ([2]; ambient temperature) was “about 0.0005 mg/ml”, the aqueous solubility ([2]; room temperature) was “about 0.5 μg/ml” and the “outcome of i.v. administration” value ([3]; 6 and 60 mg/m^2 in Cremophor ELP:ethanol 1:1, i.v., animals 1 and 2, administration discontinued) was “death of the animals”. For the same compound, the “reaction to intravenous administration” value ([3]; dog, in vivo, iv) was “anaphylactic type reaction”.
